In one test the test system is stunt nematode. The test is described as follows: Stunt Nematode Test. Type of test: in vivo. The procedure:
(§1) Compounds of this invention were tested as follows for nematicidal and anthelmintic activity as dust formulations (initial and residual activity) and as acetone/water formulations (systemic activity). The formulations are described above.
The procedure was substantially the same as in the […] seedling, with subsequent inoculation of the soil with combined larvae and adult stunt nematodes. The samples were evaulated approximately four weeks after infestation. […] "Percent control" means the difference between average population counts between untreated and treated samples, divided by average population count of untreated sample, multiplied by 100.

The test system of test [1] is root-knot nematode (Meloidogyne incognita). The test is described as follows: Initial Root-Knot Nematicidal Activity. Conditions: 336 h, read-out: Percent Control; for pest or weed control at 1.25 ppm: Table 2, Application Rate 1.25 ppm. The format is in vivo. The procedure:
as §1
The activity against root-knot nematode (Meloidogyne incognita) was determined by incorporating the compound of the invention in nematode infested soil at rates in the range of 10 ppm to 0.078 ppm of compound. Several tomato or cucumber seedlings were planted in the nematode infested soil. Two weeks after planting the test pots were evaluated to ascertain the degree of galling (swelling) on the roots of the plants, indicating the control provided by the test chemical.
The results expressed as precent control (determined by knot index) are set forth as averages in Table 2 (appended). Knot index is a numerical designation assigned at evaluation, having the following meanings:
Percent control is related to knot index as follows:
When the Knot Index is between 0 and 1 it is further subdivided as follows to indicate how close the percent control is to 75% or 100%: […]

Another test has as its system lesion nematode. As to the kind of experiment: Lesion Nematode Test. Conditions: read-out: Percent Control. The format is in vivo. The method, then: as §1
The procedure was substantially the same as in the stunt nematode test described above except that pea seedlings were used. The results (Table 5 appended) show good control with many of the compounds at the application rates tested as compared with untreated samples (no control). "Percent Control" is defined as follows: [formula]

The test system of test [2] is root-knot nematode. As to the kind of experiment: Residual Root-Knot Nematicidal Activity. Type of test: in vivo, Meloidogyne incognita. Conditions: Table 3a, 5% dust, 5 ppm, read-out: Percent Control. The procedure: as §1
The ability of nematicidal compounds of the invention to control root-knot nematode infestations in soil over a period of time after treatment was evaluated. Dust formulations of test compound (5%) were incorporated into soil samples at test compound rates of 5 and 10 ppm. Subsequently, the treated soil samples were inoculated with nematode inoculum at weekly intervals, and Knot Index and Percent Control determined on seedlings planted in the soil samples. Specifically, soil treated with test compound was placed in 7.6 cm diameter fiber pots and stored in a greenhouse. At one, two and four weeks post-treatment, the appropriate number of pots was infested with root-knot nematode eggs and larvae. A cucumber or tomato seedling was planted in each pot and evaluated approximately two weeks after the soil infestation to obtain the test results reported in Tables 3 and 3a appended.

Test [3] relates to root-knot nematode. The test is described as follows: Soil Mobility against root-knot nematode. Type of test: in vivo, Meloidogyne incognita. Conditions: 336 h. The procedure:
as §1
The ability of nematicidal compounds of the invention to move through nematode-infested soil […] infested soil, and subsequently eluting the soil with 15 cm of water (equivalent to 15 cm of rainfall) into a series of two or more pots of untreated, but nematode-infested, soil. Specifically, the pots were 8 cm diameter plastic pots containing a 10 cm^3 layer of sand over a coarse grade filter paper disc. Sufficient soil was placed over the sand to fill the pots, and a second filter paper disc was placed over the soil. Each test compound-treated pot was nested over a series of two or more pots containing untreated, but nematode-infested soil, also containing sand filter paper discs as described for the treated soil pots. Fifteen cm of water was slowly dripped into the top pots and the pots were allowed to drain for 16-18 hours to remove excess water. The top filter of each pot was then removed and the pots were planted with a cucumber or tomato seedling. […] "Knot Index" and "Percent Control" are as defined in the initial root-knot nematode tests above.

A further test concerns Caenorhabditis elegans. As to the kind of experiment: C. Elegans Nematode Screening Test and Evaluation (in-vitro). Conditions: Caenorhabditis elegans. The method, then:
This in-vitro test using the free-living nematode Caenorhabditis elegans, is a modification of the assay developed by Simpkin and Coles, J. Chem. Tech. […] One milliliter of a test medium consisting of 5 mg ampicillin, 10,000 units of mycostatin and 10 ml of a dense suspension of Escherichia coli per 100 ml of a buffer solution, was pipetted into each well of a 24-well microtiter plate. The candidate nematicide, suspended at the appropriate concentration in dimethylsulfoxide, was added to the wells in […] volumes. Each rate of application was replicated two to three times. After thorough mixing of the contents of each well, 50 to 100 μl of a nematode suspension in a buffer was added so that each well received 10-15 nematodes. After the nematodes were added, the microtiter plates were incubated at 20° C. for 5-6 days.
The effect of the candidate nematicide on the survival and the reproduction of C. elegans was then evaluated by comparison of the level of population developed in the treated wells with that in untreated wells. Specific effects on population development, such as reduced egg hatch or molting disruption, were noted if they were evident.

[4] abbreviates: Table 2, Application Rate 0.625 ppm.
Where [5] appears, read: 168 h, inoculation 1 week post-treatment.
[6] abbreviates: 336 h, inoculation 2 weeks post-treatment.
Where [7] appears, read: 672 h, inoculation 4 weeks post-treatment.
Where [8] appears, read: 672 h, Table 4a; rate 5 ppm; read-out: Percent Control.
The mark [9] stands for this setting: Table 7a, 5% dust, 5 ppm, BOTTOM container, read-out: Percent Control.
[10] abbreviates: Table 7a, 5% dust, 5 ppm, MIDDLE container, read-out: Percent Control.
Setting [11] is: Table 7a, 5% dust, 5 ppm, TOP container, read-out: Percent Control.
Where [12] appears, read: Table 2, Application Rate 0.312 ppm.
Where [13] appears, read: Table 2, Application Rate 2.5 ppm.
Where [14] appears, read: read-out: Percent Control, Table 7a, 5% dust, 5 ppm, BOTTOM container.

Like-named read-outs stand apart in the source and are kept apart here.

As for `FC(F)=C(F)CCN=C=S` [Compound 6, (3,4,4-trifluoro-3-butenyl) isothiocyanate], the pest or weed control at 5 ppm in the test with stunt nematode (672 h, Table 4; rate 5 ppm; read-out: Percent Control) came out at 51%. Also, in test [1], the pest or weed control at 2.5 ppm came out at 38%, the pest or weed control at 5 ppm stood at 78% and the pest or weed control at 10 ppm amounted to 100%.

As to `FC(F)=C(F)CCSc1cccs1` [Compound 10, 2-(3,4,4-trifluoro-3-butenylthio)thiopene], the pest or weed control at 2.5 ppm in the test with lesion nematode was 33%. In addition, the pest or weed control at 0.625 ppm in test [1] (setting [4]) amounted to 63%. Also, in test [1], the pest or weed control at 1.25 ppm was 81% and the pest or weed control at 2.5 ppm was 95%. Besides, in test [1] (Table 2, Application Rate 5.0 ppm), the pest or weed control at 5 ppm is 99%.

Turning to `N#CCCSc1nnc(SCCC(F)=C(F)F)s1` [Compound 28, 2-(2-cyanoethylthio)-5-(3,4,4-trifluoro-3-butenylthio)-1,3,4-thiadiazole], the pest or weed control at 5 ppm is 100% in the test on root-knot nematode [2] (setting [5]); 100% with root-knot nematode [2] (setting [6]); 8% with root-knot nematode [2] (setting [7]); 38% in the test on stunt nematode (setting [8]); 68% with root-knot nematode [3] (setting [9]); 83% with root-knot nematode [3] (setting [10]). Moreover, the pest or weed control at 5 ppm with root-knot nematode [3] (setting [11]) came to 68%. The pest or weed control at 2.5 ppm in the test with lesion nematode (Table 5, rate 2.5 ppm) is 45%; in test [1] (setting [13]), 100%. The pest or weed control at 0.312 ppm in test [1] (setting [12]) turned out to be 81%. In addition, in test [1] (setting [4]), the pest or weed control at 0.625 ppm worked out at 86%. For the same compound, the pest or weed control at 1.25 ppm in test [1] was determined as 98%.

`CCCSc1nnc(SCCC(F)=C(F)F)s1` [Compound 29, 2-propylthio-5-(3,4,4-trifluoro-3-butenylthio)-1,3,4-thiadiazole]: the pest or weed control at 5 ppm with root-knot nematode [2] (setting [5]) was 100%; in the test on root-knot nematode [2] (setting [6]), 98%; with root-knot nematode [2] (setting [7]), 81%; in the test on stunt nematode (setting [8]), 56%; in the test with root-knot nematode [3] (setting [9]) it was 50%; with root-knot nematode [3] (setting [10]), 81%. The pest or weed control at 5 ppm in the test on root-knot nematode [3] (setting [11]) came to 98%. For the same compound, the pest or weed control at 2.5 ppm in the test with lesion nematode (Table 5, rate 2.5 ppm) was 68%; in test [1] (setting [13]) it was 99%. The pest or weed control at 0.625 ppm in test [1] (setting [4]) stood at 99%. Further, the pest or weed control at 1.25 ppm in test [1] amounted to 99%. Besides, the pest or weed control at 0.312 ppm in test [1] was found to be 95%.

With `CC(C)Sc1nnc(SCCC(F)=C(F)F)s1` [Compound 30, 2-(1-methylethylthio)-5-(3,4,4-trifluoro-3-butenylthio)-1,3,4-thiadiazole], the pest or weed control at 5 ppm amounted to 98% in the test with root-knot nematode [2] (setting [5]); 97% with root-knot nematode [2] (setting [6]); 83% in the test with root-knot nematode [2] (setting [7]); 66% in the test on stunt nematode (setting [8]); 100% in the test on root-knot nematode [3] (setting [10]); 99% in the test on root-knot nematode [3] (setting [11]). Moreover, in the test on root-knot nematode [3] (setting [14]), the pest or weed control at 5 ppm was 17%. Also, the pest or weed control at 2.5 ppm in the test with lesion nematode (Table 5, rate 2.5 ppm) was 75%; in test [1] (setting [13]), 100%. The pest or weed control at 0.312 ppm in test [1] (setting [12]) came out at 97%. The pest or weed control at 0.625 ppm in test [1] (setting [4]) came to 99%. Moreover, in test [1], the pest or weed control at 1.25 ppm turned out to be 99%.

As for `FC(F)=C(F)CCSc1nnc(SCc2ccccc2F)s1` [Compound 34, 2-(2-fluorophenylmethylthio)-5-(3,4,4-trifluoro-3-butenylthio)-1,3,4-thiadiazole], the pest or weed control at 2.5 ppm in the test with lesion nematode (Table 5, rate 2.5 ppm) was 52%; in test [1] (setting [13]) it was 100%. Besides, the figures for the pest or weed control at 5 ppm in the test on root-knot nematode [3] (setting [9]), in the test on root-knot nematode [3] (setting [10]) and in the test on root-knot nematode [3] (setting [11]) were 8%, 67% and 98%, respectively. In test [1] (Table 2, Application Rate 0.078 ppm), the pest or weed control at 0.078 ppm turned out to be 38%. Moreover, in test [1] (Table 2, Application Rate 0.156 ppm), the pest or weed control at 0.156 ppm came out at 64%. Moreover, in test [1] (setting [12]), the pest or weed control at 0.312 ppm is 86%. In addition, the pest or weed control at 0.625 ppm in test [1] (setting [4]) was 99%. In test [1], the pest or weed control at 1.25 ppm amounted to 99%. Besides, the inhibition at 5 ppm in the test on Caenorhabditis elegans (Table 9 screen, 5 ppm, read-out: Percent Inhibition of Reproduction) worked out at 100%. In addition, the mortality at 5 ppm was 25% with Caenorhabditis elegans (Table 9 screen, 5 ppm, read-out: Percent Mortality) and 100% in the test on Caenorhabditis elegans (Table 10 evaluation, 5 ppm, read-out: Percent Mortality). Moreover, the inhibition at 1.25 ppm in the test with Caenorhabditis elegans (Table 10 evaluation, 1.25 ppm, read-out: Percent Inhibition of Reproduction) stood at 0%. In addition, the mortality at 1.25 ppm with Caenorhabditis elegans (Table 10 evaluation, 1.25 ppm, read-out: Percent Mortality) was found to be 0%. The inhibition at 2.5 ppm in the test with Caenorhabditis elegans (Table 10 evaluation, 2.5 ppm, read-out: Percent Inhibition of Reproduction) stood at 100%. Further, the mortality at 2.5 ppm in the test with Caenorhabditis elegans (Table 10 evaluation, 2.5 ppm, read-out: Percent Mortality) was determined as 100%.

With `FC(F)=C(F)CCSc1nnc(CCc2ccccc2)o1` [Compound 47, 2-(2-phenylethyl)-5-(3,4,4-trifluoro-3-butenylthio)-1,3,4-oxadiazole], the pest or weed control at 5 ppm in the test with root-knot nematode [2] (setting [5]) amounted to 96%; in the test with root-knot nematode [2] (setting [6]), 25%; with root-knot nematode [2] (setting [7]), 0%; in the test on stunt nematode (setting [8]) it was 35%; in the test with root-knot nematode [3] (setting [9]), 58%; in the test on root-knot nematode [3] (setting [10]) it was 96%. Moreover, the pest or weed control at 5 ppm in the test with root-knot nematode [3] (setting [11]) is 98%. Further, the pest or weed control at 2.5 ppm amounted to 69% in the test with lesion nematode (Table 5, rate 2.5 ppm) and 100% in test [1] (setting [13]). Further, in test [1], the pest or weed control at 1.25 ppm was determined as 96%. Moreover, in test [1], the pest or weed control at 0.312 ppm is 95%. For the same compound, the pest or weed control at 0.625 ppm in test [1] amounted to 95%.

For the compound `FC(F)=C(F)CCSc1nnc(-c2ccc(Br)cc2)o1` [Compound 49, 2-(4-bromophenyl)-5-(3,4,4-trifluoro-3-butenylthio)-1,3,4-oxadiazole], the pest or weed control at 5 ppm in the test with stunt nematode (setting [8]) was 58%; in the test with root-knot nematode [3] (setting [9]), 8%; in the test with root-knot nematode [3] (setting [10]), 71%; with root-knot nematode [3] (setting [11]) it was 99%. The pest or weed control at 0.312 ppm in test [1] (setting [12]) turned out to be 98%. The pest or weed control at 0.625 ppm in test [1] (setting [4]) was 100%. Also, in test [1], the pest or weed control at 1.25 ppm was found to be 100%. In addition, the pest or weed control at 2.5 ppm in test [1] (setting [13]) worked out at 100%.

Consider `FC(F)=C(F)CCSc1nnc(-c2ccc(F)cc2)o1` [Compound 50, 2-(4-fluorophenyl)-5-(3,4,4-trifluoro-3-butenylthio)-1,3,4-oxadiazole], for which the pest or weed control at 5 ppm in the test on stunt nematode (672 h; Table 4a; rate 5 ppm; read-out: Percent Control) came out at 53%; in the test with root-knot nematode [3] (setting [10]), 71%; in the test on root-knot nematode [3] (setting [11]) it was 98%; in the test on root-knot nematode [3] (setting [14]) it was 33%. Moreover, the pest or weed control at 0.312 ppm in test [1] (setting [12]) is 78%. Further, the pest or weed control at 0.625 ppm in test [1] (setting [4]) was found to be 99%. In addition, the pest or weed control at 1.25 ppm in test [1] was 99%. Also, in test [1] (setting [13]), the pest or weed control at 2.5 ppm worked out at 100%.

The record behind these values is patent publication US4952580A, “Pesticidal polyhaloalkene derivatives” (priority 1988, dated 1990).
